Data as given in US11786519B2, “Apoptosis-inducing agents for the treatment of cancer and immune and autoimmune diseases” (AbbVie Inc., priority 2011, dated 2023).

Tests used:
Bcl-xL = Bcl-xL (Homo sapiens, UniProt Q07817); assay: TR-FRET binding assay, competition with F-Bak for Bcl-xL; details: competition with F-Bak probe, GST-Bcl-xL
Procedure, shortened: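 Serially diluted compounds ([…] as 2× starting concentration, 10% DMSO) compete with F-Bak probe for Bcl-xL, detected via Tb-labelled antibody TR-FRET after 2 h at room temperature. Excitation 340 nm, emission 520/495 nm; Ki derived by Wang's equation. Can be run with human or fetal bovine serum.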

[1] = molecular target: mouse FL5.12 cells transfected with Bcl-xL (Homo sapiens, UniProt Q07817); assay: FL5.12 cellular assay (cell viability, CellTiter-Glo); assay type: cell-based; details: IL-3-depleted, 3% FBS assay media, 24 hours; read-out: FL5.12 Bcl-xL, −IL3, EC50
Chain of mouse FL5.12 cells transfected with Bcl-xL (Q07817 whole entry, change not shown): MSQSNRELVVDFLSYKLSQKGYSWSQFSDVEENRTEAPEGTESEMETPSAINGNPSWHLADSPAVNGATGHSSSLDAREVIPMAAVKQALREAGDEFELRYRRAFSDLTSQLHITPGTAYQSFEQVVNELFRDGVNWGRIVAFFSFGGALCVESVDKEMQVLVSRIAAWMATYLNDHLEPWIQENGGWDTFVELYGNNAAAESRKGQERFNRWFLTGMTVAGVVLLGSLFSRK
Text: Individual determinations were the result of duplicate values.

Chain of Bcl-xL (Q07817 whole entry): as the sequence (Q07817 whole entry, change not shown) above

Cc1c(-c2ccc(N3CCc4cccc(C(=O)Nc5nc6ccccc6s5)c4C3C)nc2C(=O)O)cnn1CC12CC3CC(CC(C3)C1)C2 (stereo not drawn) [Example 43, 6-[8-(1,3-benzothiazol-2-ylcarbamoyl)-1-methyl-3,4-dihydroisoquinolin-2(1H)-yl]-3-[5-methyl-1-(tricyclo[3.3.1.1^3,7]dec-1-ylmethyl)-1H-pyrazol-4-yl]pyridine-2-carboxylic acid]
Ki (Bcl-xL): 0.2 nM
EC50 [1]: 9 nM

Cc1c(-c2ccc(N3CCc4cccc(C(=O)Nc5nc6ccccc6s5)c4C3)nc2C(=O)NS(=O)(=O)C2CC2)cc(C#N)n1CC12CC3CC(CC(C3)C1)C2 [Example 36, N-(1,3-benzothiazol-2-yl)-2-{5-[5-cyano-2-methyl-1-(tricyclo[3.3.1.1^3,7]dec-1-ylmethyl)-1H-pyrrol-3-yl]-6-[(cyclopropylsulfonyl)carbamoyl]pyridin-2-yl}-1,2,3,4-tetrahydroisoquinoline-8-carboxamide]
Ki (Bcl-xL): 0.3 nM
EC50 [1]: 0.8 nM

Cc1c(-c2ccc(N3CCc4cccc(C(=O)Nc5nc6ccccc6s5)c4C3)nc2C(=O)O)cnn1CC12CC3CC(C)(CC(C)(C3)C1)C2 [Example 32, 6-[8-(1,3-benzothiazol-2-ylcarbamoyl)-3,4-dihydroisoquinolin-2(1H)-yl]-3-(1-{[3,5-dimethyltricyclo[3.3.1.1^3,7]dec-1-yl]methyl}-5-methyl-1H-pyrazol-4-yl)pyridine-2-carboxylic acid]
Ki (Bcl-xL): < 0.1 nM
EC50 [1]: 1 nM

COC12CC3CC(CC(Cn4ncc(-c5ccc(N6CCc7cccc(C(=O)Nc8nc9ccccc9s8)c7C6)nc5C(=O)NS(C)(=O)=O)c4C)(C3)C1)C2 [Example 37, N-(1,3-benzothiazol-2-yl)-2-{5-(1-{[3-methoxytricyclo[3.3.1.1^3,7]dec-1-yl]methyl}-5-methyl-1H-pyrazol-4-yl)-6-[(methylsulfonyl)carbamoyl]pyridin-2-yl}-1,2,3,4-tetrahydroisoquinoline-8-carboxamide]
Ki (Bcl-xL): < 0.1 nM
EC50 [1]: 3 nM

O=C(Nc1nc2ccccc2s1)c1cccc2c1CN(c1ccc(-c3cnn(CC45CC6CC(C4)CC(N4CCS(=O)(=O)CC4)(C6)C5)c3)c(C(=O)O)n1)CC2 [Example 33, 6-[8-(1,3-benzothiazol-2-ylcarbamoyl)-3,4-dihydroisoquinolin-2(1H)-yl]-3-(1-{[3-(1,1-dioxidothiomorpholin-4-yl)tricyclo[3.3.1.1^3,7]dec-1-yl]methyl}-1H-pyrazol-4-yl)pyridine-2-carboxylic acid]
Ki (Bcl-xL): 0.1 nM
EC50 [1]: > 1000 nM

Cc1c(-c2ccc(N3CCc4cccc(C(=O)Nc5nc6ccccc6s5)c4C3)nc2C(=O)O)cnn1CC1(OCCS(C)(=O)=O)CCCCCCC1 [Example 65, 6-[8-(1,3-benzothiazol-2-ylcarbamoyl)-3,4-dihydroisoquinolin-2(1H)-yl]-3-[5-methyl-1-({1-[2-(methylsulfonyl)ethoxy]cyclooctyl}methyl)-1H-pyrazol-4-yl]pyridine-2-carboxylic acid]
Ki (Bcl-xL): < 0.1 nM
EC50 [1]: 1 nM

Cc1c(-c2ccc(N3CCc4cccc(C(=O)Nc5nc6ccccc6s5)c4C3)nc2C(=O)NS(C)(=O)=O)cnn1CC12CC3CC(CC(C3)C1)C2 [Example 17, N-(1,3-benzothiazol-2-yl)-2-{6-[(methylsulfonyl)carbamoyl]-5-[5-methyl-1-(tricyclo[3.3.1.1^3,7]dec-1-ylmethyl)-1H-pyrazol-4-yl]pyridin-2-yl}-1,2,3,4-tetrahydroisoquinoline-8-carboxamide]
Ki (Bcl-xL): < 0.1 nM
EC50 [1]: 1 nM

Cc1c(-c2ccc(N3CCc4cccc(C(=O)Nc5nc6cccnc6s5)c4C3)nc2C(=O)O)cnn1CC12CC3CC(CC(C3)C1)C2 [Example 24, 3-[5-methyl-1-(tricyclo[3.3.1.1^3,7]dec-1-ylmethyl)-1H-pyrazol-4-yl]-6-[8-([1,3]thiazolo[5,4-b]pyridin-2-ylcarbamoyl)-3,4-dihydroisoquinolin-2(1H)-yl]pyridine-2-carboxylic acid]
Ki (Bcl-xL): < 0.1 nM
EC50 [1]: < 1 nM

O=C(Nc1nc2ccccc2s1)c1cccc2c1CN(c1ccc(-c3cnn(CC4CC5CCC(C4)N5C(=O)OCc4ccccc4)c3)c(C(=O)O)n1)CC2 (stereo not drawn) [Example 84, 6-[8-(1,3-benzothiazol-2-ylcarbamoyl)-3,4-dihydroisoquinolin-2(1H)-yl]-3-[1-({8-[(benzyloxy)carbonyl]-8-azabicyclo[3.2.1]oct-3-yl}methyl)-1H-pyrazol-4-yl]pyridine-2-carboxylic acid]
Ki (Bcl-xL): 0.9 nM
EC50 [1]: > 1000 nM

N#Cc1c(SC23CC4CC(CC(C4)C2)C3)cccc1-c1ccc(N2CCc3cccc(C(=O)Nc4nc5ccccc5s4)c3C2)nc1C(=O)O [Example 48, 6-[8-(1,3-benzothiazol-2-ylcarbamoyl)-3,4-dihydroisoquinolin-2(1H)-yl]-3-{2-cyano-3-[tricyclo[3.3.1.1^3,7]dec-1-ylsulfanyl]phenyl}pyridine-2-carboxylic acid]
Ki (Bcl-xL): 0.2 nM
EC50 [1]: 8 nM

Cc1nn(CC23CC4CC(CC(C4)C2)C3)c(C)c1-c1ccc(N2CCc3cccc(C(=O)Nc4nc5ccccc5s4)c3C2)nc1C(=O)O [Example 2, 6-[8-(1,3-benzothiazol-2-ylcarbamoyl)-3,4-dihydroisoquinolin-2(1H)-yl]-3-[3,5-dimethyl-1-(tricyclo[3.3.1.1^3,7]dec-1-ylmethyl)-1H-pyrazol-4-yl]pyridine-2-carboxylic acid]
Ki (Bcl-xL): < 0.1 nM
EC50 [1]: < 1 nM

Cc1c(-c2ccc(N3Cc4c(C(=O)Nc5nc6ccccc6s5)cccc4C(C)(C)C3)nc2C(=O)O)cnn1CC12CC3CC(CC(C3)C1)C2 [Example 14, 6-[8-(1,3-benzothiazol-2-ylcarbamoyl)-4,4-dimethyl-3,4-dihydroisoquinolin-2(1H)-yl]-3-[5-methyl-1-(tricyclo[3.3.1.1^3,7]dec-1-ylmethyl)-1H-pyrazol-4-yl]pyridine-2-carboxylic acid]
Ki (Bcl-xL): 0.2 nM
EC50 [1]: < 1 nM

Cc1c(-c2ccc(N3CCc4cccc(C(=O)Nc5nc6cccnc6s5)c4C3)nc2C(=O)NS(C)(=O)=O)cnn1CC12CC3CC(CC(C3)C1)C2 [Example 75, 2-{6-[(methylsulfonyl)carbamoyl]-5-[5-methyl-1-(tricyclo[3.3.1.1^3,7]dec-1-ylmethyl)-1H-pyrazol-4-yl]pyridin-2-yl}-N-([1,3]thiazolo[5,4-b]pyridin-2-yl)-1,2,3,4-tetrahydroisoquinoline-8-carboxamide]
Ki (Bcl-xL): < 0.1 nM
EC50 [1]: 3 nM

COCCC1(Cn2ncc(-c3ccc(N4CCc5cccc(C(=O)Nc6nc7ccccc7s6)c5C4)nc3C(=O)O)c2C)CCCCCCC1 [Example 46, 6-[8-(1,3-benzothiazol-2-ylcarbamoyl)-3,4-dihydroisoquinolin-2(1H)-yl]-3-(1-{[1-(2-methoxyethyl)cyclooctyl]methyl}-5-methyl-1H-pyrazol-4-yl)pyridine-2-carboxylic acid]
Ki (Bcl-xL): < 0.1 nM
EC50 [1]: 1 nM

N#Cc1c(-c2ccc(N3CCc4cccc(C(=O)Nc5nc6ccccc6s5)c4C3)nc2C(=O)O)cnn1CC12CC3CC(CC(C3)C1)C2 [Example 29, 6-[8-(1,3-benzothiazol-2-ylcarbamoyl)-3,4-dihydroisoquinolin-2(1H)-yl]-3-{5-cyano-1-[tricyclo[3.3.1.1^3,7]dec-1-ylmethyl]-1H-pyrazol-4-yl}pyridine-2-carboxylic acid]
Ki (Bcl-xL): < 0.1 nM
EC50 [1]: 3 nM
